Measurements taken from publication PMC4520450, “Procyanidins Negatively Affect the Activity of the Phosphatases of Regenerating Liver” (PLoS ONE, 2015).
Where two headings read alike, the source gives them in different places. Each block holds one molecule with its values, some of them ahead of it.

Assays:
PRL-3 = target: T1, PRL-3 (Homo sapiens, UniProt O75365); assay: DiFMUP phosphatase activity assay for PRLs; format: biochemical
T1 construct: His-TEV (cleaved yes); made in house
Procedure: Biochemical phosphatase activity measurements were carried out in the presence of different concentrations of various polyphenols, compounds 1–11 (Fig 1), using recombinant PRL-3 and 6,8-difluoro-4-methylumbelliferyl phosphate (DiFMUP) as a fluorogenic substrate (see the experimental procedures). We observed that the monomeric epicatechins EGC and EC inhibit PRL-3 only weakly, with a slightly better activity of EGC, which bears three hydroxyl groups at the B-ring. […] In general, as a basic structure activity-relationship the following trend was observed: a higher number of hydroxyl groups at the B-ring increased the activity slightly. […] The influence of the stereochemistry at C(2)–C(3) was studied by using GCG (the trans-epimer of EGCG).
(§1) Fig 2 Effect of polyphenolic compounds 8 (A), 9 (B), 10 (C) and 11 (D) on the phosphatase activity of PRL-1, PRL-2, PRL-3, PP1, and PP2A. Proteins were incubated for 30 min with 0–1000 μM of the corresponding procyandin 8–11. Phosphatase activity was measured in the presence of DiFMUP at 25°C using the concentration corresponding to the KM of each protein. The KM for PRLs was determined separately (PRL-3 = 21 μM, PRL-2 and PRL-1 = 24 μM). The KM for PP1 (91 μM) and for PP2A (100 μM) was taken from the literature. Protein concentrations are 50 nM for all PRLs and 2 mU for PP1 and 0.05 U for PP2A (see the Experimental Procedures). Phosphatase activity in the absence of inhibitors was set as 100%. Data represent means ± standard errors of the mean (n = 3–5).
(§2) DiFMUP assay for PRLs: In a final reaction volume of 100 μL the PRLs (50 nM final concentration) were incubated with decreasing concentrations of the inhibitory polyphenols for 30 minutes at 25°C. The buffer conditions were 108 mM TrisCl (pH 7.5), Triton 0.05% (v/v), DTT 27.0 mM, NaCl 811 mM. After the incubation time 20 μL DiFMUP (6,8-Difluoro-4-methylumbelliferyl phosphate) was added to reach a final concentration of 21 μM for PRL-3 and 24 μM for PRL-1 and PRL-2. On a Tecan safire2 (Tecan, Salzburg, Austria) plate reader dephosphorylation of the substrate to its fluorescent product was monitored by following the emission at 358 nm with excitation at 452 nm for 20 minutes. All measurements were done in triplicates, and the experiments were repeated at least three times. The slopes of the initial phases were obtained by linear regression of the data points. The normalized reaction rates were plotted versus the log of the inhibitor concentrations and the IC50 values were obtained by fitting the curves using the one site competition model of GraphPad Prism (GraphPad Software, Version 5). KM values were determined by measuring reaction kinetics of substrate dilution series. Initial velocities were plotted against DiFMUP concentration and the data was analyzed by Michaelis-Menten kinetics curve fitting of GraphPad Prism. A final DMSO content of 0.4% was maintained for the monomeric catechins. Due to the high water solubility of the procyanidins DMSO was not required and measurements were done in assay buffer only.

PRL-1 = target: T2, PRL-1 (Homo sapiens, UniProt Q93096); assay: DiFMUP phosphatase activity assay for PRLs; format: biochemical
T2 construct: His-TEV (cleaved yes); made in house
T2 sequence (Q93096 1-173): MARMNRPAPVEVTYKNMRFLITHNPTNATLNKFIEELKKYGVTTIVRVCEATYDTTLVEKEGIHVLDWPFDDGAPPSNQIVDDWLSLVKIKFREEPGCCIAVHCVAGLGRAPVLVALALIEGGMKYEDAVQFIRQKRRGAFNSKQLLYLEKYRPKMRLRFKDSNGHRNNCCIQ
Procedure: as §1, §2

PRL-2 = target: T3, PRL-2 (Homo sapiens, UniProt Q12974); assay: DiFMUP phosphatase activity assay for PRLs; format: biochemical; conditions: 50 nM PRL-2, 30 min preincubation, 25°C, 24 μM DiFMUP; mean ± SEM (n = 3–5); read-out: IC50 (Ki) PRL-2
T3 construct: His-TEV (cleaved yes); made in house
T3 sequence (Q12974 1-167): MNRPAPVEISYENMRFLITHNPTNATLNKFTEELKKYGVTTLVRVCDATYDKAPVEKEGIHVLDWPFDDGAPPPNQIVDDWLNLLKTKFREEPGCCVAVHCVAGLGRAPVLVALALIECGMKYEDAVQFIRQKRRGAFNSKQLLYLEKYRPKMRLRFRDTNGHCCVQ
Procedure: as §1, §2

PP1 = target: T4, PP1 (Oryctolagus cuniculus, UniProt P62139); assay: DiFMUP assay for PP1; format: biochemical
T4 construct: purchased NewEngland Biolabs; host or cells: E. coli
T4 sequence (P62139 whole entry): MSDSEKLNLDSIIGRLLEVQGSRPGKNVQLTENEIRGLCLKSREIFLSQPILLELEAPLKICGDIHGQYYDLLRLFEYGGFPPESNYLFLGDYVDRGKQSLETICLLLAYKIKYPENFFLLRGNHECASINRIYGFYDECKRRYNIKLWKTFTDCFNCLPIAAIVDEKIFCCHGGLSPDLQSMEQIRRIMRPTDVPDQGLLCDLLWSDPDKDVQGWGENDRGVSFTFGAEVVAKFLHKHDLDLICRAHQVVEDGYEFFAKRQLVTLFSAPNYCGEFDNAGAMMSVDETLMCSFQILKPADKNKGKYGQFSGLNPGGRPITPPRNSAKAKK
Procedure: as §1
(§3) BSA, which is usually supplemented to the assay buffer for stabilizing the PPs was however excluded, as BSA is known to form complexes with polyphenolic compounds [40–42] and thus would decrease the concentrations of the inhibitor in the assay. […] In contrast, the phosphatase activity of PP2A was suppressed to a much lesser extent with weak (for trimer 9 and hexamer 11) and strong statistical significance (dimer 8 and tetramer 10). Thus our results corroborate the data reported previously.
DiFMUP assay for PP1: In a final reaction volume of 100 μL PP1c (2 mU final concentration, according to manufacturer’s instructions) were incubated with decreasing concentrations of the inhibitory polyphenols for 30 minutes at 25°C. The assay buffer contained 25 mM imidazole (pH 7.4), 1 mM dithiothreitol (DTT), and 50 mM NaCl. Bovine serum albumin (BSA) was excluded due to possible binding of the polyphenolic compounds. After the incubation time 20 μL DiFMUP (6,8-Difluoro-4-methylumbelliferyl phosphate) was added to reach a final concentration of 100 μM. Monitoring of the fluorescent dephosphorylation product was monitored and data analyzed as described above.

PP2A = target: T5, PP2A (Homo sapiens, UniProt P67775); assay: DiFMUP assay for PP2A; format: biochemical; conditions: 0.05 U PP2A, 30 min preincubation, 25°C, no BSA, mean ± SEM (n = 3–5), read-out: IC50 (Ki) PP2A
T5 construct: purified from human red blood cells; purchased Merck Millipore; host or cells: human red blood cells
T5 sequence (P67775 whole entry): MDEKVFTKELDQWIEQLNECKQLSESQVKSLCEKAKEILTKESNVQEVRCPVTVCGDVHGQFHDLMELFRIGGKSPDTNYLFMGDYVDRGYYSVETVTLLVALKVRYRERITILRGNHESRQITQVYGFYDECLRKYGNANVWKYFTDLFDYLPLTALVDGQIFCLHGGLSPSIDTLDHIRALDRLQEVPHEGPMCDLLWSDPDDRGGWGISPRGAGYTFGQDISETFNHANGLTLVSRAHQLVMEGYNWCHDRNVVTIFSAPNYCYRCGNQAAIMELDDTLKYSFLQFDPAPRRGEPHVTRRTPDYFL
T5 sequence (P30153 2-589 partner limits assumed): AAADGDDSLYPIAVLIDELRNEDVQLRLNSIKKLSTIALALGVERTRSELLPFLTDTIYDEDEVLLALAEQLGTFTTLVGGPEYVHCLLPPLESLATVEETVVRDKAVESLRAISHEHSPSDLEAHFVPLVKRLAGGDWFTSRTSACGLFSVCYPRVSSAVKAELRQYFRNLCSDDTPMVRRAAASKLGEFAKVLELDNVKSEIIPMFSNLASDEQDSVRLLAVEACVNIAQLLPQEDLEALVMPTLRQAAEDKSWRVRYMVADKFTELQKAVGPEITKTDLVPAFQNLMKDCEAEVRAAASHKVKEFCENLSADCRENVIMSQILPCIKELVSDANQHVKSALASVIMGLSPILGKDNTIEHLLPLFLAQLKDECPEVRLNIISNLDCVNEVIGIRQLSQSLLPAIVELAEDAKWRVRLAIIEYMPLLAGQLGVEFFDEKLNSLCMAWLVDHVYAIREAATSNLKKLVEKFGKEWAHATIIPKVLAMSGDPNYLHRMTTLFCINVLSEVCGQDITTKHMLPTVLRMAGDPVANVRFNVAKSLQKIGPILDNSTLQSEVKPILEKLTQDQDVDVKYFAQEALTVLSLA
Procedure: as §1, §3
Chemicals and vendors were as follows: Synthesis of Procyanidins (dimer to dodecamer) was done as previously reported. EGCG, EGC, ECG and EC were synthesized as previously reported or purchased from Sigma. (+)-Catechin and 3-(4,5-dimethylthiazol-2-yl)-2,5-diphenyltetrazolium bromide (MTT) were obtained from Sigma. 6,8-Difluoro-4-Methylumbelliferyl Phosphate (DiFMUP), propidium iodide and calcein AM were from lifescience technologies. Cell dissociation solution (10X) was purchased from amsbio. PP1c (recombinant from E. coli) was purchased from NewEngland Biolabs and PP2A (purified from human red blood cells, contains different subunits according to manufacturer) from Merck Millipore. Transwell plates (BRANDplates) and insert stripes for the migration assay were purchased from Brand GmbH. Black 96 well plates (96F Nunclon Delta) were purchased from Thermo Scientific. Transparent 96 well assay plates with UV transparent bottom were purchased from Corning Inc. Wound healing experiments were carried out with μ-dish 35 mm culture inserts, which were purchased from Ibidi.
DiFMUP assay for PP2A: In a final reaction volume of 100 μL PP2A (0.05 U final concentration, according to manufacturer’s instructions) were incubated with decreasing concentrations of the inhibitory polyphenols for 30 minutes at 25°C. The assay buffer contained 50 mM TrisCl (pH 7.5), 250 mM NaCl, 0.1 mM EDTA, 1 mM MnCl2, and 2 mM dithiothreitol (DTT). […] Monitoring of the fluorescent dephosphorylation product was monitored and data analyzed as described above.

protein phosphatase-1 = target: protein phosphatase-1; parameters: method as in PMID 22260360; conditions: cited from earlier work
[1] = tested on: PRL-1 overexpressing HEK293 cells; assay: Wound healing assay; format: cell-based; conditions: 35 μM analog 3, PRL-1 overexpressing cells
Procedure: (§4) To study if procyanidin C2 is able to inhibit PRL-1 and PRL-3 in cells, HEK293 cells were treated in a wound-healing assay (see the experimental procedures). […] As a control the empty vector cell line was again utilized. […] The migration speed was for all cell lines similar when treated with 50 μM of 9. To further corroborate these findings we performed additionally a transwell assay as an alternative way to study cell migration.
(§5) Fig 6 Wound healing abilities of PRL-1 or PRL-3 overexpressing or empty vector control HEK293 cell lines were analyzed in the presence of compound 9 or medium only. Cells were seeded at a concentration of 800,000 cells per insert and procyanidin C2 (9) was added at a concentration of 25 and 50 μM. A) Pictures of the wound gaps were taken at 0 h and 7 h for both conditions (with and without treatment). B) Quantification of the wound healing experiment. Speed of migration is shown for combined data from different replicates, as mean ± SD (n = 38–88). Two-sided t-tests with Welsh correction were performed for p < 0.05. ns = not significant;***: < 0.001; **: < 0.01; *: < 0.05. C) Effect of polyphenolic compounds in a transwell assay on the cell migration of HEK293 empty vector and PRL-3 overexpressing cell lines. Cells were seeded at a concentration of 100,000 cells per insert and procyanidin C2 (9) was added at a final concentration of 25 and 50 μM. Migration was allowed for 16 h before harvesting and staining with calcein AM for fluorescent readout. Mean ± SD (n = 60–72) is shown for combined data from different replicates. Two-sided t-tests with Welsh correction were performed for p < 0.05. ns = not significant. D) Quantification of wound healing experiment including blocking PRL-1 and PRL-3 with analog 3. Speed of migration is shown for combined data from different replicates, as mean ± SD (n = 63–82). Two-sided t-tests with Welsh correction were performed for p < 0.05.
(§6) Wound healing experiments were carried out with μ-dish 35mm culture inserts. 8 × 10^5 cells/mL of the respective HEK293 stable cell lines were seeded into each of the two insert wells and allowed to settle for 40 h in the presence of tetracycline. Then the inserts were gently removed and growth medium supplemented with 7.5% FBS and 0.1% tetracycline was added as well as procyanidin C2 (9) or procyanidin B3 (8) at a final concentration of 25, 50 or 75 μM. For the experiment including blocking of PRLs with analog 3, the latter one was added at a final concentration of 35 μM, followed by addition of procyanidin C2 (9) at either 25 or 50 μM final concentration. Negative controls contained growth medium with FBS only. Pictures of the wound gap were taken at 0 h and 7 h time points. A Zeiss Cellobserver HS microscope was used with 10 × magnitude. For data analysis, in each experiment, the distances between both cell fronts at time point 0 h and 7 h were measured by taking 20 different measuring points. Then all the measurements from different replicates (4) for each experiment were combined and analyzed by t-test using Welsh correction in GraphPad Prism. Data are shown with 99% confidence intervals.

[2] = tested on: PRL-3 overexpressing HEK293 cells; assay: Wound healing assay; format: cell-based; conditions: 35 μM analog 3, PRL-3 overexpressing cells
Procedure: as §4, §5, §6

[3] = 50 nM PRL-3, 30 min preincubation, 25°C, 21 μM DiFMUP, mean ± SEM (n = 3–5), read-out: IC50 (Ki) PRL-3

T1 sequence (O75365 whole entry): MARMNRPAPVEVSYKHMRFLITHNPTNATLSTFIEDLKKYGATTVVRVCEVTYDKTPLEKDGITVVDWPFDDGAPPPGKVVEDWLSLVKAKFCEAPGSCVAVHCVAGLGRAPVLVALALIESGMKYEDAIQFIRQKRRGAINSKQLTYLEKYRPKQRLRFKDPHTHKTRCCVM

IC50 (PRL-3; [3]): 456 ± 65.6 µM
IC50 toward PRL-1 relative to IC50 values of the oligomers (PRL-1): 50 fold
IC50 toward PRL-1 relative to PRL-3 (PRL-1): about three times lower
IC50 (PRL-1; 50 nM PRL-1, 30 min preincubation, 25°C, 24 μM DiFMUP, mean ± SEM (n = 3–5), read-out: IC50 (Ki) PRL-1): 158 ± 1.2 µM
Compound: Oc1cc(O)c2c(c1)O[C@H](c1ccc(O)c(O)c1)[C@@H](O)C2 [(+)-Catechin (6), (+)-Catechin]

IC50 (PRL-3; [3]): 514 ± 68.2 µM
Compound: Oc1cc(O)c2c(c1)O[C@H](c1ccc(O)c(O)c1)[C@H](O)C2 [EC (1), (–)-epicatechin]

increase in PRL-3 inhibition of 3-gallate ester compared to non-gallate (2 vs 1, 4 vs 3) (PRL-3): about two-fold increase
IC50 (PRL-3; [3]): 181 ± 13.6 µM
Compound: O=C(O[C@@H]1Cc2c(O)cc(O)cc2O[C@@H]1c1ccc(O)c(O)c1)c1cc(O)c(O)c(O)c1 [ECG (2), (–)-epicatechin-3-O-gallate]

Compound: Oc1cc(O)c2c(c1)O[C@H](c1cc(O)c(O)c(O)c1)[C@H](O)C2 [EGC (3), (–)-epigallocatechin]
IC50 (PRL-3; [3]): 285 ± 3.7 µM

IC50 (PRL-3; [3]): 113 ± 10.7 µM
Compound: O=C(O[C@H]1Cc2c(O)cc(O)cc2O[C@@H]1c1cc(O)c(O)c(O)c1)c1cc(O)c(O)c(O)c1 [GCG (5)]

Compound: O=C(O)c1cc(O)c(O)c(O)c1 [Gallic acid (7), Gallic acid]
IC50 (PRL-3): > 1000 µM
inhibition of PRL-3 (PRL-3; up to 1000 μM): did not show any inhibition

IC50 (PRL-3; [3]): 12.5 ± 1.8 µM
IC50 (PRL-2): 10 ± 0.4 µM
PP1 potency of hexamer compared to tetramer 10 (PP1): increased only about two-fold
IC50 (PP1; 2 mU PP1c, 30 min preincubation, 25°C, DiFMUP, no BSA, mean ± SEM (n = 3–5), read-out: IC50 (Ki) PP1): 7 ± 2.3 µM
IC50 (PP2A): 32.5 ± 4.8 µM
Compound: Oc1cc(O)c2c(c1)O[C@H](c1ccc(O)c(O)c1)[C@@H](O)[C@@H]2c1c(O)cc(O)c2c1O[C@H](c1ccc(O)c(O)c1)[C@@H](O)[C@@H]2c1c(O)cc(O)c2c1O[C@H](c1ccc(O)c(O)c1)[C@@H](O)[C@@H]2c1c(O)cc(O)c2c1O[C@H](c1ccc(O)c(O)c1)[C@@H](O)[C@@H]2c1c(O)cc(O)c2c1O[C@H](c1ccc(O)c(O)c1)[C@@H](O)[C@@H]2c1c(O)cc(O)c2c1O[C@H](c1ccc(O)c(O)c1)[C@@H](O)C2 [Hexamer (11)]

Compound: O=C(OC[C@H]1O[C@@H](OC(=O)c2cc(O)c(O)c(O)c2)[C@H](OC(=O)c2cc(O)c(O)c(O)c2)[C@@H](OC(=O)c2cc(O)c(O)c(O)c2)[C@@H]1OC(=O)c1cc(O)c(O)c(O)c1)c1cc(O)c(O)c(O)c1 [PGG, 1,2,3,4,6-penta-O-galloyl-beta-D-glucose, reference compound]
IC50 (protein phosphatase-1): 0.4 µM

Compound: Oc1cc(O)c2c(c1)O[C@H](c1cc(O)c(O)c(O)c1)[C@H](O)C2 [analog 3, reference compound]
migration speed, wound healing [1]: a bit lower than the baseline
migration speed, wound healing [2]: fell back to the baseline level of the empty vector cell line
